Assay results: PMC3124400 (International Journal of Nanomedicine, 2011)

What was measured:
[1] = cited from earlier work
[2] = In vitro release by dynamic dialysis method; format: physicochemical; conditions: dialysis bag control

CC(C)OC(=O)C(C)(C)Oc1ccc(C(=O)c2ccc(Cl)cc2)cc1 [fenofibrate]
Increase in oral bioavailability ([1]; fenofibrate in fast-dissolving solid dispersion formulation): 4.4 fold
Enhancement of oral bioavailability ([1]; fenofibrate in liposomes containing sodium deoxycholate): 5.13 fold

Cyclosporine A [CyA]
Time for complete diffusion of CyA in solution across the dialysis bag [2]: ≤ 1 h
